Results on 24 compounds are retold here after ChEMBL document CHEMBL4765394, “From irreversible to reversible covalent inhibitors: Harnessing the andrographolide scaffold for anti-inflammatory action” (Eur J Med Chem, 2020).

The source made the active and inactive calls. The rule behind the calls is not given here.

Data set [1] addresses T1, Nuclear factor NF-kappa-B p105 subunit (Homo sapiens) (UniProt P19838).
T1 sequence (whole entry): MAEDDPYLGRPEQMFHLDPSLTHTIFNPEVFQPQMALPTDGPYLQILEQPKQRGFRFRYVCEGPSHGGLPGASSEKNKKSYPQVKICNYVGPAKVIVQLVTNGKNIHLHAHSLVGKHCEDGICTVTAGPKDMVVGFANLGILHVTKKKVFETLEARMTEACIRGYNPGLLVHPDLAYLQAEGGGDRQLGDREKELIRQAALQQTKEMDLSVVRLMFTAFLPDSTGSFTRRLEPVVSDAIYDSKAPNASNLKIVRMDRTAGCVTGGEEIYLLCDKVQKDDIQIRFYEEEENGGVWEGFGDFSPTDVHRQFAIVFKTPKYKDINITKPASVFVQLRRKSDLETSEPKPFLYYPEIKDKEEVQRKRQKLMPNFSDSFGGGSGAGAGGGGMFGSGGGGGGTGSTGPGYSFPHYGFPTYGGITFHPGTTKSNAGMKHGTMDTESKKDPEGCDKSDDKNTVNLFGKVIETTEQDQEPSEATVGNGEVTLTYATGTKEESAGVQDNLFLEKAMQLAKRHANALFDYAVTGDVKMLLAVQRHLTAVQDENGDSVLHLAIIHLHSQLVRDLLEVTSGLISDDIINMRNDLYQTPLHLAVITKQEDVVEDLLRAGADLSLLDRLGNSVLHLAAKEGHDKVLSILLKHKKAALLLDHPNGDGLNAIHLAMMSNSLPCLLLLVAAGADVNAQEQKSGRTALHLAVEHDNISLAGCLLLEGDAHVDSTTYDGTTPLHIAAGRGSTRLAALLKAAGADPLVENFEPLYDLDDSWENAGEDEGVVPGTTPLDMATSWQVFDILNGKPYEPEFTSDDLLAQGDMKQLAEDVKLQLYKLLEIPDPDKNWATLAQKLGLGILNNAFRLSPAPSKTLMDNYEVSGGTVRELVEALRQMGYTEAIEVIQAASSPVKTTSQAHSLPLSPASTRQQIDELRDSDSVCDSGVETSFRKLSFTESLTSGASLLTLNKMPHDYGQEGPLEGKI
Description: Inhibition of DNA binding activity of human NF-kappaB p50 at 200 uM measured after 1 hr by ELISA. On the technique in general: In an ELISA, binding on a coated surface is turned into a signal by an enzyme label.

The subject of data set [2] is RAW264.7. Kind of data set: Antiinflammatory activity in mouse RAW264.7 cells assessed as inhibition of LPS-induced TNFalpha release at 5 to 10 uM preincubated for 1 hr followed by LPS stimulation and measured after 4 hrs by ELISA. Particulars: dose 5-10 µM, time 5.0 hrs. Type of data set: functional, cell-based.
Data set [3] in a line: Aqueous stability of compound. The data set is classed as physicochemical. The conditions noted are these: buffer.
Data set [4] concerns RAW264.7. Kind of data set: Antiinflammatory activity in mouse RAW264.7 cells assessed as inhibition of LPS-induced IL6 release at 5 to 10 uM preincubated for 1 hr followed by LPS stimulation and measured after 24 hrs by ELISA. Type of data set: functional, cell-based. The conditions noted are these: dose 5-10 µM, time 25.0 hrs.
The test system of data set [5] is RAW264.7. Kind of data set: Cytotoxicity against mouse RAW264.7 cells assessed as reduction cell viability at 5 to 50 uM measured after 24 hrs by Celltiter-glo assay. Particulars: raw264.7, 24 h, dose 5-50 µM. The data set is classed as cell-based. Background: In ATP-based viability assays light output follows the ATP content of the culture.
Data set [6] has as its system RAW-Blue. Kind of data set: Inhibition of LPS-induced NF-kappaB activity in mouse RAW-Blue cells assessed as reduction in SEAP reporter activity at 5 to 20 uM preincubated for 1 hr followed by LPS stimulation and measured after 8 to 24 hrs by SEAP reporter gene assay. The data set is classed as cell-based. The conditions noted are these: dose 5-20 µM, time 25.0 hrs. On the technique in general: Reporter assays use an easily measured gene product as a stand-in for the process of interest.

Data set [7] has as its system RAW-Blue. Description: Inhibition of LPS-induced NF-kappaB activity in mouse RAW-Blue cells assessed as reduction in SEAP reporter activity at 5 to 20 uM preincubated for 1 hr followed by LPS stimulation and measured after 24 hrs by SEAP reporter gene assay. The data set is classed as cell-based. The conditions noted are these: dose 5-20 µM, time 25.0 hrs.
For data set [8], the system named is RAW-Blue. Kind of data set: Inhibition of LPS-induced NF-kappaB activity in mouse RAW-Blue cells assessed as reduction in SEAP reporter activity at 5 to 20 uM preincubated for 1 hr followed by LPS stimulation and measured after 8 hrs by SEAP reporter gene assay. Type of data set: cell-based. The conditions noted are these: dose 5-20 µM, time 9.0 hrs.
Data set [9] in a line: GSH reactivity assessed as GSH adduct formation by measuring reduction in intracellular GSH level at 20 uM measured after 2 hrs by cell-based monochlorobimane fluorometric method. Type of data set: ADME. More on the design: scale not given: the % may be the effect or the level left.
Data set [10] deals with RAW264.7. Kind of data set: Cytotoxicity against BSO-treated mouse RAW264.7 cells assessed as reduction cell viability measured after 24 hrs by Celltiter-glo assay. The conditions noted are these: raw264.7, 24 h, dose 10-20 µM. Type of data set: cell-based.
The subject of data set [11] is RAW-Blue. Kind of data set: Activation of NF-kappaB activity in mouse RAW-Blue cells assessed as increase in SEAP reporter activity at 5 to 20 uM measured after 24 hrs by SEAP reporter gene assay. Type of data set: cell-based. The conditions noted are these: filed as activator, dose 5-20 µM.
The nature of data set [12]: GSH reactivity in PBS assessed as GSH adduct formation by measuring half life by HPLC-MS analysis. The data set is classed as ADME.
Data set [13] can be described thus: GSH reactivity in PBS assessed as GSH adduct formation measured up to 8 hrs by HPLC-MS analysis. The data set is classed as ADME. The conditions noted are these: buffer.
Data set [14] deals with RAW-Blue. Kind of data set: Activation of NF-kappaB activity in mouse RAW-Blue cells assessed as increase in SEAP reporter activity at 30 uM measured after 24 hrs in presence of p38 inhibitor SB203580 by SEAP reporter gene assay. Type of data set: cell-based.

For the compound `C=C1CC[C@@H]2[C@](C)(CO)[C@H](O)CC[C@@]2(C)[C@@H]1C/C=C/C(C)O` (stereo not given in full), in data set [1], the inhibition entry was “inactive”.

As to `C=C1CC[C@@H]2[C@](C)(CO)[C@H](O)CC[C@@]2(C)[C@@H]1/C=C/C1=CCOC1=O`, the inhibition result in the data set with RAW264.7 [2] and in the data set on RAW264.7 [4] was “inactive” each time. In addition, the Stabilty entry in data set [3] was “Stable”.

`C=C1CC[C@@H]2[C@](C)(CO)[C@H](O)CC[C@@]2(C)[C@@H]1C/C=C1\C(=O)Nc2ccccc21`: in data set [3], the Stabilty result was “Stable”. In addition, in the data set with RAW264.7 [4], the inhibition entry was “inactive”.

For `C=C1CC[C@@H]2[C@](C)(CO)[C@H](O)CC[C@@]2(C)[C@@H]1C/C=C1\SC(=S)NC1=O`, the inhibition entry in the data set on RAW264.7 [2] and in the data set on RAW264.7 [4] was “inactive” throughout. In the data set with RAW264.7 [5], the Activity result is “Non-Toxic”. Further, in [3], the Stabilty entry was “Stable”.

With `C[C@H]1CC[C@@H]2[C@](C)(CO)[C@H](O)CC[C@@]2(C)[C@@H]1CC[C@@H]1C(=O)OC[C@H]1O`, the inhibition result in the data set on RAW264.7 [2] and in the data set with RAW264.7 [4] was “inactive” throughout. Also, the Stabilty result in data set [3] is “Stable”.

As to `CC(=O)CCC[C@@H]1[C@@H](C)CC[C@@H]2[C@](C)(CO)[C@H](O)CC[C@]21C`, the inhibition result in [1] was “inactive”.

Consider `C=C1CC[C@@H]2[C@](C)(CO)[C@H](O)CC[C@@]2(C)[C@@H]1C/C=C1\C[C@@H](OC)OC1=O`, for which the Stabilty result in data set [3] was “Stable”. The inhibition entry in the data set with RAW264.7 [4] is “inactive”.

On to `C=C1CC[C@@H]2[C@](C)(CO)[C@H](O)CC[C@@]2(C)[C@@H]1CC=O`, for which the inhibition entry in the data set with RAW264.7 [2] and in the data set with RAW264.7 [4] was “inactive” throughout. The Stabilty entry in data set [3] is “Stable”.

As to `C=C1CC[C@@H]2[C@](C)(CO)[C@H](O)CC[C@@]2(C)[C@@H]1C/C=C/C#N`, the inhibition result in the data set with RAW264.7 [2] and with RAW264.7 [4] was “inactive” throughout. In addition, the Stabilty result in data set [3] was “Stable”.

Consider `C=C(CO)C(=O)OC`, for which the inhibition entry with RAW264.7 [2] and in the data set on RAW264.7 [4] was “inactive” in each case.

Take `C=C1CC[C@@H]2[C@](C)(CO)[C@H](O)CC[C@@]2(C)[C@@H]1C/C=C\C#N`: the Stabilty entry in data set [3] was “Stable”. Also, the inhibition result in the data set with RAW264.7 [4] is “inactive”.

As to `C=C1CC[C@@H]2[C@](C)(CO)[C@H](O)CC[C@@]2(C)[C@@H]1C/C=C/C(=O)OCC`, the inhibition entry with RAW264.7 [2] and in the data set on RAW264.7 [4] was “inactive” throughout. Further, the Stabilty result in data set [3] is on record as “Stable”.

In the case of `C=C1CC[C@@H]2[C@](C)(CO)[C@H](O)CC[C@@]2(C)[C@@H]1C/C=C1/CCOC1=O`, the Stabilty result in data set [3] is on record as “Stable”. For the same compound, the inhibition result in the data set on RAW264.7 [4] is “inactive”.

Turning to `C=C1CC[C@@H]2[C@](C)(CO)[C@H](O)CC[C@@]2(C)[C@@H]1C/C=C1\C(=O)OC[C@H]1O`, the inhibition entry with RAW-Blue [6] and in the data set with RAW264.7 [2] was “inactive” each time. Also, the Stabilty entry in [3] was “Stable”.

With `C=C1CC[C@@H]2[C@](C)(CO)[C@H](O)CC[C@@]2(C)[C@@H]1C/C=C1/C(=O)Nc2ccc(F)cc21`, in data set [3], the Stabilty entry is on record as “Stable”. Also, the inhibition entry in the data set with RAW264.7 [4] was “inactive”.

Turning to `C=C1CC[C@@H]2[C@](C)(CO)[C@H](O)CC[C@@]2(C)[C@@H]1C/C=C1\SC(=O)NC1=O`, the Activity entry with RAW264.7 [5] is “Non-Toxic”. Besides, in [3], the Stabilty entry is recorded as “Stable”. The inhibition result in the data set with RAW264.7 [4] was “inactive”.

For `C=C1CC[C@@H]2[C@](C)(CO)[C@H](O)CC[C@@]2(C)[C@@H]1CC=C(C#N)C#N`, the Stabilty result in [3] is reported as “Unstable”.

As for `C=C1CC[C@@H]2[C@](C)(CO)[C@H](O)CC[C@@]2(C)[C@@H]1C/C=C1/C=COC1=O`, the inhibition entry in the data set with RAW-Blue [7] was “inactive”. The inhibition entry with RAW264.7 [2], in the data set with RAW264.7 [4] and in the data set with RAW-Blue [8] was “Active” each time. Also, the Stabilty result in [3] was “Stable”. Moreover, in data set [9], the Activity was above 70%.

Take `C=C1CC[C@@H]2[C@](C)(CO)[C@H](O)CC[C@@]2(C)[C@@H]1C/C=C1\C[C@H](OC)OC1=O`: in [3], the Stabilty entry is recorded as “Stable”. Moreover, the inhibition entry with RAW264.7 [4] is “inactive”.

Regarding `C=C1CC[C@@H]2[C@](C)(CO)[C@H](O)CC[C@@]2(C)[C@@H]1C/C=C1\C(=O)Nc2ccc(F)cc21`, the Stabilty result in data set [3] is reported as “Stable”. In addition, in the data set on RAW264.7 [4], the inhibition result is “inactive”.

For the compound `C=C1CC[C@@H]2[C@](C)(CO)[C@H](O)CC[C@@]2(C)[C@@H]1C/C=C1/C(=O)Nc2ccccc21`, the inhibition result with RAW264.7 [2] and in the data set on RAW264.7 [4] was “inactive” in each case. Besides, in data set [3], the Stabilty result is recorded as “Stable”.

Regarding `C=C1CC[C@@H]2[C@](C)(CO)[C@H](O)CC[C@@]2(C)[C@@H]1C/C=C1\NC(=O)NC1=O`, the Activity entry in the data set on RAW264.7 [5] is recorded as “Non-Toxic”. For the same compound, the Stabilty result in data set [3] is “Stable”. The inhibition entry with RAW264.7 [4] is “inactive”.

The term CC50 denotes the concentration that lowers cell viability or growth by half. Turning to `C=C1CC[C@@H]2[C@](C)(CO)[C@H](O)CC[C@@]2(C)[C@@H]1C/C=C1\CCOC1=O`, in the data set on RAW264.7 [10], the CC50 was above 30 µM. The inhibition result in the data set on RAW264.7 [2] and in the data set with RAW264.7 [4] was “inactive” each time. Further, the Stabilty entry in [3] is “Stable”.

With `C=C1CC[C@@H]2[C@](C)(CO)[C@H](O)CC[C@@]2(C)[C@@H]1C/C=C1\C=COC1=O`, the result in the data set with RAW-Blue [11] was Active. Further, the inhibition entry in the data set on RAW-Blue [7] was “inactive”. Moreover, the inhibition result with RAW264.7 [2], in the data set on RAW264.7 [4] and in the data set on RAW-Blue [8] was “Active” throughout. Besides, the t1/2 in data set [12] is 3 min. Also, in [13], the K is 0.003539 M⁻¹ s⁻¹. For the same compound, the Stabilty result in data set [3] is “Stable”. In the data set with RAW-Blue [14], the outcome was inactive. Besides, the Activity in data set [9] is listed as above 70%.
